In patent US11059832B2, “HPK1 inhibitors and methods of using same” (University Health Network, priority 2015, dated 2021):

What was measured:
Type in all cases: biochemical
human HPK1 (MAP4K1) = biological target: T1, human HPK1 (MAP4K1) (Homo sapiens, UniProt Q92918); test: HPK1 inhibition assay (indirect ELISA); conditions: GST-HPK1 0.6 nM, 12 μM ATP; read-out: IC50 Range HPK1
T1 construct: human HPK1 (aa 1-346); purchased Invitrogen PV6355
T1 sequence (Q92918 1-346): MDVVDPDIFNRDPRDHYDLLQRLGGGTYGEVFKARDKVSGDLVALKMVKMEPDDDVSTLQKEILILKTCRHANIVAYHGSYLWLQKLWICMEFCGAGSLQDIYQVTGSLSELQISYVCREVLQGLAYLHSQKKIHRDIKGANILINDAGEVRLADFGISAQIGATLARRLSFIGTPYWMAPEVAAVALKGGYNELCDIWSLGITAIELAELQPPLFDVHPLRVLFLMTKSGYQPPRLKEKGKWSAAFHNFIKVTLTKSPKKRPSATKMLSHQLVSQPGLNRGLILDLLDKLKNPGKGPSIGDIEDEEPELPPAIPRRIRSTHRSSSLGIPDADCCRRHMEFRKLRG
Description: Active HPK1 (MAP4K1) was purchased as an N-terminal GST fusion of human HPK1 (aa 1-346) from Invitrogen (cat #PV6355). HPK1 activity was measured using an indirect ELISA detection system. GST-HPK1 (0.6 nM) was incubated in the presence of 12 μM ATP (Sigma cat #A7699), 5 mM MOPS (pH 7.2), 2.5 mM β-glycerol-phosphate, 5 mM MgCl2, 0.4 mM EDTA, 1 mM EGTA, 0.05 mM DTT, in a 96 well microtitre plate pre-coated with 0.5 μg/well bovine myelin basic protein (MBP) (Millipore, cat #13-110). The reaction was allowed to proceed for 30 min, followed by 5 washes of the plate with Wash Buffer (phosphate buffered saline supplemented with 0.2% Tween 20), and incubation for 30 min with a 1:3000 dilution of anti-phospho-threonine rabbit polyclonal antibody (Cell Signaling cat #9381). The plate was washed 5 times with wash buffer, incubated for 30 min in the presence of goat anti-rabbit horse radish peroxidase conjugate (BioRad cat #1721019, 1:3000 concentration), washed an additional 5 times with wash buffer, and incubated in the presence of TMB substrate (Sigma cat #T0440). The colorimetric reaction was allowed to continue for 5 min, followed by addition of stop solution (0.5 N H2SO4), and quantified by detection at 450 nm with a monochromatic plate reader (Molecular Devices M5).
Compound inhibition was determined at either a fixed concentration (10 μM) or at a variable inhibitor concentration (typically 50 μM to 0.1 μM in a 10 point dose response titration). Compounds were pre-incubated in the presence of enzyme for 15 min prior to addition of ATP and the activity remaining quantified using the above described activity assay. The % inhibition of a compound was determined using the following formula; % inhibition=100×(1−(experimental value−background value)/(high activity control−background value)). The IC50 value was determined using a non-linear 4 point logistic curve fit (XLfit4, IDBS) with the formula; (A+(B/(1+((x/C)^D)))), where A=background value, B=range, C=inflection point, D=curve fit parameter.

LCK = biological target: T2, LCK (Homo sapiens, UniProt P06239); test: LCK inhibition, FRET based Z'-LYTE Kinase Assay; conditions: 25 nM LCK, 180 μM ATP; read-out: IC50 Range Lck
T2 construct: purchased Invitrogen P3043
T2 sequence (P06239 whole entry, species assumed): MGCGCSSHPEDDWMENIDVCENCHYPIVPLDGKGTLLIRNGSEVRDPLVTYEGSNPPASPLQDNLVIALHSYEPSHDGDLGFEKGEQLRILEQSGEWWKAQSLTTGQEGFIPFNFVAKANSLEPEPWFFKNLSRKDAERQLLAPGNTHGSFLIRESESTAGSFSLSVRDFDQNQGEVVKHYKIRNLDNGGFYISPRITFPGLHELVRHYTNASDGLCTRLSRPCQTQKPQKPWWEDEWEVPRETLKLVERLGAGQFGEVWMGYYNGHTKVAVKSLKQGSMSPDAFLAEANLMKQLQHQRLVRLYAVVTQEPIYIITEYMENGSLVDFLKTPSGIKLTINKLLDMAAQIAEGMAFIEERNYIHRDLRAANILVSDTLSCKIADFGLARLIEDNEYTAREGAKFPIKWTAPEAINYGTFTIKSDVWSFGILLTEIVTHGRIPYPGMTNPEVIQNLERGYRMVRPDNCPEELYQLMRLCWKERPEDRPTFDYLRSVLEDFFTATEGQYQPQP
Description: (§1) FLT3 and LCK compound inhibition were determined using FRET based Z′-LYTE Kinase Assay Kit with Tyrosine 2 peptide as the substrate (Invitrogen cat #PV3191). […] The % inhibition values were determined according to the manufacturer's directions and IC50 values were obtained using a non-linear 4 point logistic curve fit (XLfit4, IDBS).

FLT3 = biological target: T3, FLT3 (Homo sapiens, UniProt P36888); test: FLT3 inhibition, FRET based Z'-LYTE Kinase Assay; conditions: 1 nM FLT3, 940 μM ATP; read-out: IC50 Range Flt3
T3 construct: purchased Invitrogen PV3182
T3 sequence (P36888 27-993): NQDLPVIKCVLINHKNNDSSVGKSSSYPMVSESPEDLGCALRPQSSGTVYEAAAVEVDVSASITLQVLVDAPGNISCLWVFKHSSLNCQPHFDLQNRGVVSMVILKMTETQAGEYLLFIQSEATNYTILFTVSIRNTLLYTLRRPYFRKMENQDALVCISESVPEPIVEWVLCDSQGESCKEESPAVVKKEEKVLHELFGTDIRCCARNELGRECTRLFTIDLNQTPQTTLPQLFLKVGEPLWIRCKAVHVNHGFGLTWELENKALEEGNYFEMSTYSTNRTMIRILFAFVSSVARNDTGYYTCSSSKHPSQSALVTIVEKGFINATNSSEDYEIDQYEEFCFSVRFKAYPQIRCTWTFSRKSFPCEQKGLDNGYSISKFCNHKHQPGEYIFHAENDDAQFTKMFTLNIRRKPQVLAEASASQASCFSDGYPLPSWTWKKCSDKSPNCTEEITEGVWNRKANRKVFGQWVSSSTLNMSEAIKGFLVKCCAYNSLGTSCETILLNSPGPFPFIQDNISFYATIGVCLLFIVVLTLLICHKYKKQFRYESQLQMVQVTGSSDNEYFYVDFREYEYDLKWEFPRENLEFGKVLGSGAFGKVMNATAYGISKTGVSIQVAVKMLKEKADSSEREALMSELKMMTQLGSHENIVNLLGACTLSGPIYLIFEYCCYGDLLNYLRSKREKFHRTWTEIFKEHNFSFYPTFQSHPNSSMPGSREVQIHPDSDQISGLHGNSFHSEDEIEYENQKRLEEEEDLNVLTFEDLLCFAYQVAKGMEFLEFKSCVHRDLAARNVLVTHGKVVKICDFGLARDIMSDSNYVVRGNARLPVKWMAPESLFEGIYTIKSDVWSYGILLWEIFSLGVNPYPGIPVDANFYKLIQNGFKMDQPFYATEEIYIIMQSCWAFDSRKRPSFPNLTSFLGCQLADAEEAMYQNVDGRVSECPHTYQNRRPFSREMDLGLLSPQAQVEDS
Description: as §1

| SMILES | IC50 (human HPK1 (MAP4K1)) [nM] | IC50 (LCK) [nM] | IC50 (FLT3) [nM] |
| --- | --- | --- | --- |
| CN1CCN(c2ccc3nc(-c4c(N[C@@H]5CC[C@@H](O)C5)c5ccsc5[nH]c4=O)[nH]c3c2)CC1 (relative stereo) [Example A9, 4-(((1R*,3R*)-3-hydroxycyclopentyl)amino)-5-(6-(4-methylpiperazin-1-yl)-1H-benzo[d]imidazol-2-yl)thieno[2,3-b]pyridin-6(7H)-one] | ≤ 50 | ≤ 50 | ≤ 50 |
| CN1CCN(c2ccc3nc(-c4c(N[C@@H]5CC[C@H](O)C5)c5ccsc5[nH]c4=O)[nH]c3c2)CC1 (relative stereo) [Example A13, 4-(((1R*,3S*)-3-hydroxycyclopentyl)amino)-5-(6-(4-methylpiperazin-1-yl)-1H-benzo[d]imidazol-2-yl)thieno[2,3-b]pyridin-6(7H)-one] | ≤ 50 | 50 to 500 | ≤ 50 |
| CN1CCN(c2ccc3nc(-c4c(N[C@@H]5CC[C@H](O)C5)c5sccc5[nH]c4=O)[nH]c3c2)CC1 (relative stereo) [Example A36, 7-(((1R*,3S*)-3-hydroxycyclopentyl)amino)-6-(6-(4-methylpiperazin-1-yl)-1H-benzo[d]imidazol-2-yl)thieno[3,2-b]pyridin-5(4H)-one] | ≤ 50 | ≤ 50 | ≤ 50 |
| CN1CCN(c2ccc3nc(-c4c(N[C@H]5CCNC[C@H]5F)c5ccsc5[nH]c4=O)[nH]c3c2)CC1 (relative stereo) [Example A55, 4-(((3R*,4S*)-3-fluoropiperidin-4-yl)amino)-5-(6-(4-methylpiperazin-1-yl)-1H-benzo[d]imidazol-2-yl)thieno[2,3-b]pyridin-6(7H)-one] | ≤ 50 | 50 to 500 | ≤ 50 |
| Cc1csc2[nH]c(=O)c(-c3nc4ccc(N5CCN(C)CC5)cc4[nH]3)c(N)c12 [Example A2, 4-amino-3-methyl-5-(6-(4-methylpiperazin-1-yl)-1H-benzo[d]imidazol-2-yl) thieno[2,3-b]pyridin-6(7H)-one] | ≤ 50 | 50 to 500 | ≤ 50 |
| Nc1c(-c2nc3ccc(N4CCOCC4)cc3[nH]2)c(=O)[nH]c2sccc12 [Example A4, 4-amino-5-(6-morpholino-1H-benzo[d]imidazol-2-yl)thieno[2,3-b]pyridin-6(7H)-one] | ≤ 50 | 50 to 500 | ≤ 50 |
| CN1CCN(c2ccc3nc(-c4c(NC5CCOCC5)c5ccsc5[nH]c4=O)[nH]c3c2)CC1 [Example A7, 5-(6-(4-methylpiperazin-1-yl)-1H-benzo[d]imidazol-2-yl)-4-((tetrahydro-2H-pyran-4-yl)amino)thieno[2,3-b]pyridin-6(7H)-one] | ≤ 50 | 50 to 500 | ≤ 50 |
| CN1CCN(c2ccc3nc(-c4c(N[C@H]5C[C@H](O)C5)c5ccsc5[nH]c4=O)[nH]c3c2)CC1 [Example A8, 4-(((1r,3r)-3-hydroxycyclobutyl)amino)-5-(6-(4-methylpiperazin-1-yl)-1H-benzo[d]imidazol-2-yl)thieno[2,3-b]pyridin-6(7H)-one] | ≤ 50 | 50 to 500 | ≤ 50 |
| CN1CCN(c2ccc3nc(-c4c(N[C@@H]5CCNC[C@H]5F)c5ccsc5[nH]c4=O)[nH]c3c2)CC1 [Example A14, 4-(((3R,4R)-3-fluoropiperidin-4-yl)amino)-5-(6-(4-methylpiperazin-1-yl)-1H-benzo[d]imidazol-2-yl)thieno[2,3-b]pyridin-6(7H)-one] | ≤ 50 | ≤ 50 | ≤ 50 |
| CN1CCN(c2ccc3nc(-c4c(N)c5ccsc5[nH]c4=O)[nH]c3c2F)CC1 [Example A69, 4-amino-5-(7-fluoro-6-(4-methylpiperazin-1-yl)-1H-benzo[d]imidazol-2-yl)thieno[2,3-b]pyridin-6(7H)-one] |  | 50 to 500 | ≤ 50 |
| CN1CCN(c2ccc3nc(-c4c(N[C@H]5CCCC[C@H]5O)c5cscc5[nH]c4=O)[nH]c3c2)CC1 [Example A70, 4-(((1S,2R)-2-hydroxycyclohexyl)amino)-3-(6-(4-methylpiperazin-1-yl)-1H-benzo[d]imidazol-2-yl)thieno[3,4-b]pyridin-2(1H)-one] |  | ≤ 50 | ≤ 50 |
